Test results reported in PMC5218480 (PLoS ONE, 2017).

Test system: MV-4-11 cells
Test: Gene expression microarray analysis (Affymetrix PrimeView) and GSEA
Format: cell-based, human
Set-up: RFU PODN (11730768_x_at) / Fold change /veh PODN (11730768_x_at) / RFU LINC00158 (11744669_a_at) / Fold change /veh LINC00158 (11744669_a_at) / RFU DUSP10 (11751237_a_at) / Fold change /veh DUSP10 (11751237_a_at) / RFU ID3 (11757404_x_at) / Fold change /veh ID3 (11757404_x_at) / RFU PLEKHG5 (11737974_s_at) / Fold change /veh PLEKHG5 (11737974_s_at) / RFU LRRC4B (11730491_at) / Fold change /veh LRRC4B (11730491_at) / RFU GIMAP4 (11747438_a_at) / Fold change /veh GIMAP4 (11747438_a_at) / RFU KRT8 (11758183_x_at) / Fold change /veh KRT8 (11758183_x_at) / RFU CNN1 (11734310_a_at) / Fold change /veh CNN1 (11734310_a_at) / RFU VPS37D (11726825_at) / Fold change /veh VPS37D (11726825_at) / RFU C10orf10 (11716522_x_at) / Fold change /veh C10orf10 (11716522_x_at) / RFU KIR2DL2 /// KIR2DL4 /// KIR2DL5A /// KIR2DL5B /// KIR2DS1 /// KIR2DS2 /// KIR2DS3 /// KIR2DS4 /// KIR3DL3 /// KIR3DL3 /// KIR3DS1 (11738374_at) / Fold change /veh KIR2DL2 /// KIR2DL4 /// KIR2DL5A /// KIR2DL5B /// KIR2DS1 /// KIR2DS2 /// KIR2DS3 /// KIR2DS4 /// KIR3DL3 /// KIR3DL3 /// KIR3DS1 (11738374_at) / RFU C1QL1 (11718748_at) / Fold change /veh C1QL1 (11718748_at) / RFU TMPRSS4 (11747572_a_at) / Fold change /veh TMPRSS4 (11747572_a_at) / RFU HAMP (11756126_x_at) / Fold change /veh HAMP (11756126_x_at) / RFU RNFT2 (11725882_a_at) / Fold change /veh RNFT2 (11725882_a_at) / RFU NR4A2 (11747474_a_at) / Fold change /veh NR4A2 (11747474_a_at) / RFU ABCC12 (11746883_a_at) / Fold change /veh ABCC12 (11746883_a_at) / RFU TMEM136 (11760407_x_at) / Fold change /veh TMEM136 (11760407_x_at) / RFU CLDN22 /// WWC2 (11732394_at) / Fold change /veh CLDN22 /// WWC2 (11732394_at) / RFU HLA-DPB1 (11760878_x_at) / Fold change /veh HLA-DPB1 (11760878_x_at) / RFU SPINT1 (11716480_a_at) / Fold change /veh SPINT1 (11716480_a_at) / RFU GAP43 (11754022_s_at) / Fold change /veh GAP43 (11754022_s_at) / RFU A4GNT (11735810_at) / Fold change /veh A4GNT (11735810_at) / RFU PRB3 (11715151_x_at) / Fold change /veh PRB3 (11715151_x_at) / RFU TUBB4B (11761932_at) / Fold change /veh TUBB4B (11761932_at) / RFU CAPN14 (11732068_a_at) / Fold change /veh CAPN14 (11732068_a_at) / RFU TMCC2 (11721928_a_at) / Fold change /veh TMCC2 (11721928_a_at) / RFU IRGQ (11745062_a_at) / Fold change /veh IRGQ (11745062_a_at) / RFU FAM174B (11720279_a_at) / Fold change /veh FAM174B (11720279_a_at) / RFU TMPRSS4 (11748680_a_at) / Fold change /veh TMPRSS4 (11748680_a_at) / RFU FAM212B (11763350_a_at) / Fold change /veh FAM212B (11763350_a_at) / RFU PLEKHG5 (11743358_a_at) / Fold change /veh PLEKHG5 (11743358_a_at) / RFU ZSCAN30 (11745921_a_at) / Fold change /veh ZSCAN30 (11745921_a_at) / RFU CMKLR1 (11741424_a_at) / Fold change /veh CMKLR1 (11741424_a_at) / RFU LOC101060620 /// MAPK8IP1 (11723275_at) / Fold change /veh LOC101060620 /// MAPK8IP1 (11723275_at) / RFU SPTSSB (11747773_x_at) / Fold change /veh SPTSSB (11747773_x_at) / RFU PRSS12 (11739890_at) / Fold change /veh PRSS12 (11739890_at) / RFU BIN1 (11741810_x_at) / Fold change /veh BIN1 (11741810_x_at) / RFU WNT11 (11732464_a_at) / Fold change /veh WNT11 (11732464_a_at) / RFU C10orf10 (11716521_a_at) / Fold change /veh C10orf10 (11716521_a_at) / RFU C5orf56 (11738089_at) / Fold change /veh C5orf56 (11738089_at) / RFU CYB561 (11721691_x_at) / Fold change /veh CYB561 (11721691_x_at) / RFU ANKRD19P (11752326_a_at) / Fold change /veh ANKRD19P (11752326_a_at) / RFU OR2T12 /// OR2T33 /// OR2T8 (11738714_s_at) / Fold change /veh OR2T12 /// OR2T33 /// OR2T8 (11738714_s_at) / RFU VCAN (11748164_a_at) / Fold change /veh VCAN (11748164_a_at) / RFU JSRP1 (11732532_at) / Fold change /veh JSRP1 (11732532_at) / RFU KRTAP10-11 (11738290_x_at) / Fold change /veh KRTAP10-11 (11738290_x_at) / RFU MYO3A (11730013_a_at) / Fold change /veh MYO3A (11730013_a_at) / RFU EBF3 (11725865_a_at) / Fold change /veh EBF3 (11725865_a_at) / RFU CAMK2N1 (11719241_x_at) / Fold change /veh CAMK2N1 (11719241_x_at) / RFU C5orf56 (11738088_a_at) / Fold change /veh C5orf56 (11738088_a_at) / RFU OLFML3 (11715873_a_at) / Fold change /veh OLFML3 (11715873_a_at) / RFU LOC100653217 /// NTM (11731650_a_at) / Fold change /veh LOC100653217 /// NTM (11731650_a_at) / RFU MAPK11 (11762145_a_at) / Fold change /veh MAPK11 (11762145_a_at) / RFU FIZ1 (11724087_x_at) / Fold change /veh FIZ1 (11724087_x_at) / RFU OASL (11726364_x_at) / Fold change /veh OASL (11726364_x_at) / RFU SOX15 (11748057_x_at) / Fold change /veh SOX15 (11748057_x_at) / RFU CD79A (11719716_a_at) / Fold change /veh CD79A (11719716_a_at) / RFU HIST1H1D (11736915_at) / Fold change /veh HIST1H1D (11736915_at) / RFU CASKIN2 (11723855_a_at) / Fold change /veh CASKIN2 (11723855_a_at) / RFU LOC730098 (11760151_x_at) / Fold change /veh LOC730098 (11760151_x_at) / RFU OR4N2 (11742367_at) / Fold change /veh OR4N2 (11742367_at) / RFU PRRT2 (11749266_a_at) / Fold change /veh PRRT2 (11749266_a_at) / RFU SNX32 (11753110_a_at) / Fold change /veh SNX32 (11753110_a_at) / RFU CDHR5 (11726645_a_at) / Fold change /veh CDHR5 (11726645_a_at) / RFU RCAN1 (11760418_a_at) / Fold change /veh RCAN1 (11760418_a_at) / RFU FAM167A (11723789_a_at) / Fold change /veh FAM167A (11723789_a_at) / RFU FAM26E (11764081_at) / Fold change /veh FAM26E (11764081_at) / RFU ISYNA1 (11749810_s_at) / Fold change /veh ISYNA1 (11749810_s_at) / RFU ACY1 (11761880_at) / Fold change /veh ACY1 (11761880_at) / RFU 11764098_at / Fold change /veh 11764098_at / RFU SAMD14 (11745864_x_at) / Fold change /veh SAMD14 (11745864_x_at) / RFU NPB (11741838_a_at) / Fold change /veh NPB (11741838_a_at) / RFU TMPRSS6 (11731388_a_at) / Fold change /veh TMPRSS6 (11731388_a_at) / RFU KRTAP10-2 (11738614_at) / Fold change /veh KRTAP10-2 (11738614_at) / RFU ARHGAP8 /// PRR5-ARHGAP8 (11727945_x_at) / Fold change /veh ARHGAP8 /// PRR5-ARHGAP8 (11727945_x_at) / RFU KRTAP5-7 /// NADSYN1 (11734609_at) / Fold change /veh KRTAP5-7 /// NADSYN1 (11734609_at) / RFU RASL12 (11751679_a_at) / Fold change /veh RASL12 (11751679_a_at) / RFU CDKN2B (11736163_a_at) / Fold change /veh CDKN2B (11736163_a_at) / RFU PRF1 (11729649_at) / Fold change /veh PRF1 (11729649_at) / RFU, ZNF638 /// ZNF638-IT1 / Fold change vs veh, ZNF638 /// ZNF638-IT1 / RFU, PANK3 / Fold change vs veh, PANK3 / RFU, SH3YL1 / Fold change vs veh, SH3YL1 / RFU, ZEB2 / Fold change vs veh, ZEB2 / RFU, NRIP1 / Fold change vs veh, NRIP1 / RFU, PTTG1IP / Fold change vs veh, PTTG1IP / RFU, CAPN2 / Fold change vs veh, CAPN2 / RFU, MED14 / Fold change vs veh, MED14 / RFU, SNORA58 / Fold change vs veh, SNORA58 / RFU, C1orf63 / Fold change vs veh, C1orf63 / RFU, LRRFIP1 / Fold change vs veh, LRRFIP1 / RFU, NDUFAF7 / Fold change vs veh, NDUFAF7 / RFU, SLC12A2 / Fold change vs veh, SLC12A2 / RFU, IBTK / Fold change vs veh, IBTK / RFU, ESF1 / Fold change vs veh, ESF1 / Fold change vs veh, TMEM50B / RFU, TAOK1 / Fold change vs veh, TAOK1 / RFU, ACBD3 / Fold change vs veh, ACBD3 / RFU, TMA16 / Fold change vs veh, TMA16 / RFU, RWDD3 / Fold change vs veh, RWDD3 / RFU, BCAT1 / Fold change vs veh, BCAT1 / RFU, EDEM3 / Fold change vs veh, EDEM3 / RFU, TMEM33 / Fold change vs veh, TMEM33 / RFU, WDR75 / Fold change vs veh, WDR75 / RFU, AHCTF1 / Fold change vs veh, AHCTF1 / RFU, TFRC / Fold change vs veh, TFRC / RFU, ZDHHC17 / Fold change vs veh, ZDHHC17 / RFU, NOM1 / Fold change vs veh, NOM1 / RFU, ARL8B / Fold change vs veh, ARL8B / RFU, ZBTB11 / Fold change vs veh, ZBTB11 / RFU, TAMM41 / Fold change vs veh, TAMM41 / RFU, KIAA1704 /// LOC100996395 / Fold change vs veh, KIAA1704 /// LOC100996395 / RFU, ING1 / Fold change vs veh, ING1 / RFU, TRMT61B / Fold change vs veh, TRMT61B / RFU, FUBP3 / Fold change vs veh, FUBP3 / RFU, TP53 / Fold change vs veh, TP53 / RFU, TNKS2 / Fold change vs veh, TNKS2 / RFU, ZFP14 / Fold change vs veh, ZFP14 / RFU, ACTR2 / Fold change vs veh, ACTR2 / RFU, PPP3R1 / Fold change vs veh, PPP3R1 / RFU, PIK3R1 / Fold change vs veh, PIK3R1 / RFU, HNRNPA1 / Fold change vs veh, HNRNPA1 / RFU, RNF170 / Fold change vs veh, RNF170 / RFU, ZNF28 / Fold change vs veh, ZNF28 / RFU, RNGTT / Fold change vs veh, RNGTT / RFU, OGT / Fold change vs veh, OGT / RFU, BRD1 / Fold change vs veh, BRD1 / RFU, MARS / Fold change vs veh, MARS / RFU, ZNF655 / Fold change vs veh, ZNF655 / RFU, FAHD1 / Fold change vs veh, FAHD1 / RFU, BDP1 / Fold change vs veh, BDP1 / RFU, LRRCC1 / Fold change vs veh, LRRCC1 / RFU, ARID1A / Fold change vs veh, ARID1A / RFU, ZNF146 / Fold change vs veh, ZNF146 / RFU, ZNF330 / Fold change vs veh, ZNF330 / RFU, GPN3 / Fold change vs veh, GPN3 / RFU, C9orf123 / Fold change vs veh, C9orf123 / RFU, N4BP2L2 / Fold change vs veh, N4BP2L2 / RFU, ARFIP1 / Fold change vs veh, ARFIP1 / RFU, FAM179B / Fold change vs veh, FAM179B / RFU, BCL10 / Fold change vs veh, BCL10 / RFU, UHRF1BP1L / Fold change vs veh, UHRF1BP1L / RFU, BET1 / Fold change vs veh, BET1 / RFU, CNOT2 / Fold change vs veh, CNOT2 / RFU, ZNF268 / Fold change vs veh, ZNF268 / Fold change vs veh, ZNF507 / RFU, DGCR2 / Fold change vs veh, DGCR2 / RFU, WDSUB1 / Fold change vs veh, WDSUB1 / Fold change vs veh, HSP90B1 /// MIR3652 / RFU, ADSS / Fold change vs veh, ADSS / RFU, GK / Fold change vs veh, GK / RFU, ZNF148 / Fold change vs veh, ZNF148 / RFU, TAF9 / Fold change vs veh, TAF9 / RFU, SLC1A5 / Fold change vs veh, SLC1A5 / RFU, SLMO2 / Fold change vs veh, SLMO2 / RFU, ABCC4 / Fold change vs veh, ABCC4 / RFU, LOC101060439 /// RAP1B / Fold change vs veh, LOC101060439 /// RAP1B / RFU, RFX7 / Fold change vs veh, RFX7 / RFU, GTPBP10 / Fold change vs veh, GTPBP10 / RFU, CNEP1R1 / Fold change vs veh, CNEP1R1 / RFU, BIVM-ERCC5 /// ERCC5 / Fold change vs veh, BIVM-ERCC5 /// ERCC5 / RFU, ILF3 / Fold change vs veh, ILF3 / RFU 11762660_at / Fold change /veh 11762660_at / RFU VCAN (11757783_s_at) / Fold change /veh VCAN (11757783_s_at) / RFU DDX43 (11728927_at) / Fold change /veh DDX43 (11728927_at) / RFU KRT8 (11758188_x_at) / Fold change /veh KRT8 (11758188_x_at) / RFU NKD1 (11759106_at) / Fold change /veh NKD1 (11759106_at) / RFU SRD5A1 (11742802_a_at) / Fold change /veh SRD5A1 (11742802_a_at) / RFU TPSAB1 /// TPSB2 (11721975_s_at) / Fold change /veh TPSAB1 /// TPSB2 (11721975_s_at) / RFU GSTM3 (11746129_a_at) / Fold change /veh GSTM3 (11746129_a_at) / RFU IL23R (11737362_x_at) / Fold change /veh IL23R (11737362_x_at) / RFU TMEM51 (11727254_a_at) / Fold change /veh TMEM51 (11727254_a_at) / RFU PIWIL2 (11732686_x_at) / Fold change /veh PIWIL2 (11732686_x_at) / RFU ORM1 (11744905_x_at) / Fold change /veh ORM1 (11744905_x_at) / RFU CCDC152 (11743942_at) / Fold change /veh CCDC152 (11743942_at) / RFU ECM1 (11717891_a_at) / Fold change /veh ECM1 (11717891_a_at) / RFU IL23R (11748794_a_at) / Fold change /veh IL23R (11748794_a_at) / RFU TNFAIP8L3 (11732012_x_at) / Fold change /veh TNFAIP8L3 (11732012_x_at) / RFU MBOAT4 (11741988_at) / Fold change /veh MBOAT4 (11741988_at) / RFU 11764193_at / Fold change /veh 11764193_at / RFU TMEM53 (11763286_at) / Fold change /veh TMEM53 (11763286_at) / RFU MAGEB2 (11727129_at) / Fold change /veh MAGEB2 (11727129_at) / RFU TMEM200A (11744735_a_at) / Fold change /veh TMEM200A (11744735_a_at) / RFU CCDC152 (11751479_a_at) / Fold change /veh CCDC152 (11751479_a_at) / RFU FAM211A (11726209_a_at) / Fold change /veh FAM211A (11726209_a_at) / RFU RGS16 (11746705_a_at) / Fold change /veh RGS16 (11746705_a_at) / RFU VCAN (11755009_s_at) / Fold change /veh VCAN (11755009_s_at) / RFU RHOB (11743442_s_at) / Fold change /veh RHOB (11743442_s_at) / RFU RGS16 (11720943_a_at) / Fold change /veh RGS16 (11720943_a_at) / RFU RGS16 (11720944_at) / Fold change /veh RGS16 (11720944_at) / RFU, VPS4B / Fold change vs veh, VPS4B / RFU, CREB1 / Fold change vs veh, CREB1 / RFU, DNAJC13 / Fold change vs veh, DNAJC13 / RFU, GNAQ / Fold change vs veh, GNAQ / RFU, CDK5R1 / Fold change vs veh, CDK5R1 / RFU, ZRANB3 / Fold change vs veh, ZRANB3 / RFU, CUL4A / Fold change vs veh, CUL4A / RFU, CCNY / Fold change vs veh, CCNY / RFU, UFL1 / Fold change vs veh, UFL1 / RFU, COG3 / Fold change vs veh, COG3 / RFU, DIAPH2 / Fold change vs veh, DIAPH2 / RFU, SKA2 / Fold change vs veh, SKA2 / RFU, AFF3 / Fold change vs veh, AFF3 / RFU, LMF1 / Fold change vs veh, LMF1 / RFU, IPO11 / Fold change vs veh, IPO11 / RFU, DFFB / Fold change vs veh, DFFB / RFU, FOXP1 / Fold change vs veh, FOXP1 / RFU, CARD8 / Fold change vs veh, CARD8 / RFU, STRN3 / Fold change vs veh, STRN3 / RFU, ADK / Fold change vs veh, ADK / RFU, RASSF2 / Fold change vs veh, RASSF2 / RFU, WIPF1 / Fold change vs veh, WIPF1 / RFU, LARP1B / Fold change vs veh, LARP1B / RFU, RASA1 / Fold change vs veh, RASA1 / RFU, RB1 / Fold change vs veh, RB1 / RFU, PPFIA1 / Fold change vs veh, PPFIA1 / RFU, MAT2A / Fold change vs veh, MAT2A / RFU, CCT5 / Fold change vs veh, CCT5 / RFU, WDR92 / Fold change vs veh, WDR92 / RFU, CUX1 / Fold change vs veh, CUX1 / RFU, TTC7A / Fold change vs veh, TTC7A / RFU, TMEM135 / Fold change vs veh, TMEM135 / RFU, DEPTOR / Fold change vs veh, DEPTOR / RFU, CPM / Fold change vs veh, CPM / RFU, DNAJB6 / Fold change vs veh, DNAJB6 / RFU, CACNA2D3 / Fold change vs veh, CACNA2D3 / RFU, DTX4 / Fold change vs veh, DTX4 / RFU, TFCP2 / Fold change vs veh, TFCP2 / RFU, GMCL1 /// GMCL1P1 / Fold change vs veh, GMCL1 /// GMCL1P1 / RFU, AEBP2 / Fold change vs veh, AEBP2 / RFU, SNHG1 /// SNORD22 /// SNORD25 /// SNORD26 /// SNORD27 /// SNORD28 /// SNORD29 /// SNORD31 / Fold change vs veh, SNHG1 /// SNORD22 /// SNORD25 /// SNORD26 /// SNORD27 /// SNORD28 /// SNORD29 /// SNORD31 / Fold change (Aza/veh), C12orf56 (ProbeSet 11735607_a_at) / Fold change (ACY-1035/veh), C12orf56 (ProbeSet 11735607_a_at) / Fold change (Aza/veh), FGFR1OP (ProbeSet 11751329_s_at) / Fold change (ACY-1035/veh), FGFR1OP (ProbeSet 11751329_s_at) / Fold change (Aza/veh), VPS36 (ProbeSet 11739960_a_at) / Fold change (ACY-1035/veh), VPS36 (ProbeSet 11739960_a_at) / RFU SYPL1 (11715823_x_at) / Fold change /veh SYPL1 (11715823_x_at) / RFU IGFBP7 (11715501_s_at) / Fold change /veh IGFBP7 (11715501_s_at) / RFU REEP3 (11722064_at) / Fold change /veh REEP3 (11722064_at) / RFU IGLL1 (11728026_x_at) / Fold change /veh IGLL1 (11728026_x_at): dose or concentration left out as unconfirmed
Conditions: ProbeSet 11725902_s_at; LIST D

For `Nc1ncn([C@@H]2O[C@H](CO)[C@@H](O)[C@H]2O)c(=O)n1` [azacitidine], the “RFU, TMEM135” value was 62.37 RFU.
